Key:
[1] = system: PBMC; settings: 12.5 µM
[2] = system: MDA-MB-231 cells

SMILES | Average (percentage cell inhibition), Mastoparan PBMC [1] [%] | Average (percentage cell inhibition), Dmastoparan MDA-MB231 12.5uM [2] [%] | Average 6.5uM [2] [%]
CC[C@H](C)[C@H](N)C(=O)N[C@@H](CC(N)=O)C(=O)N[C@@H](CC(C)C)C(=O)N[C@H](C(=O)N[C@@H](C)C(=O)N[C@@H](CC(C)C)C(=O)N[C@@H](C)C(=O)N[C@@H](C)C(=O)N[C@@H](CC(C)C)C(=O)N[C@@H](C)C(=O)N[C@@H](CCCCN)C(=O)N[C@@H](CCCCN)C(=O)N[C@H](C(=O)N[C@@H](CC(C)C)C(N)=O)[C@@H](C)CC)C(C)C [V4] | 3.317 | 32.9047 | –
CC[C@H](C)[C@H](N)C(=O)N[C@@H](CC(N)=O)C(=O)N[C@@H](CC(C)C)C(=O)N[C@@H](CCCCN)C(=O)N[C@H](C(=O)N[C@@H](CC(C)C)C(=O)N[C@@H](C)C(=O)N[C@@H](C)C(=O)N[C@@H](CC(C)C)C(=O)N[C@@H](C)C(=O)N[C@@H](CCCCN)C(=O)N[C@@H](CCCCN)C(=O)N[C@H](C(=O)N[C@@H](CC(C)C)C(N)=O)[C@@H](C)CC)C(C)C [V5] | 6.235 | 36.2551 | –
CC[C@H](C)[C@H](N)C(=O)N[C@@H](CC(N)=O)C(=O)N[C@@H](CC(C)C)C(=O)N[C@@H](CCCCN)C(=O)N[C@@H](C)C(=O)N[C@H](C(=O)N[C@@H](C)C(=O)N[C@@H](C)C(=O)N[C@@H](CC(C)C)C(=O)N[C@@H](C)C(=O)N[C@@H](CCCCN)C(=O)N[C@@H](CCCCN)C(=O)N[C@H](C(=O)N[C@@H](CC(C)C)C(N)=O)[C@@H](C)CC)C(C)C [V6] | -4.76 | 10.4144 | –
CC[C@H](C)[C@H](N)C(=O)N[C@@H](CC(N)=O)C(=O)N[C@@H](CC(C)C)C(=O)N[C@@H](CCCCN)C(=O)N[C@@H](C)C(=O)N[C@@H](CC(C)C)C(=O)N[C@H](C(=O)N[C@@H](C)C(=O)N[C@@H](CC(C)C)C(=O)N[C@@H](C)C(=O)N[C@@H](CCCCN)C(=O)N[C@@H](CCCCN)C(=O)N[C@H](C(=O)N[C@@H](CC(C)C)C(N)=O)[C@@H](C)CC)C(C)C [V7] | 22.1422 | 57.1739 | –
CC[C@H](C)[C@H](N)C(=O)N[C@@H](CC(N)=O)C(=O)N[C@@H](CC(C)C)C(=O)N[C@@H](CCCCN)C(=O)N[C@@H](C)C(=O)N[C@@H](CC(C)C)C(=O)N[C@@H](C)C(=O)N[C@H](C(=O)N[C@@H](CC(C)C)C(=O)N[C@@H](C)C(=O)N[C@@H](CCCCN)C(=O)N[C@@H](CCCCN)C(=O)N[C@H](C(=O)N[C@@H](CC(C)C)C(N)=O)[C@@H](C)CC)C(C)C [V8] | 11.0844 | 43.0954 | –
CC[C@H](C)[C@H](N)C(=O)N[C@@H](CC(N)=O)C(=O)N[C@@H](CC(C)C)C(=O)N[C@@H](CCCCN)C(=O)N[C@@H](C)C(=O)N[C@@H](CC(C)C)C(=O)N[C@@H](C)C(=O)N[C@@H](C)C(=O)N[C@H](C(=O)N[C@@H](C)C(=O)N[C@@H](CCCCN)C(=O)N[C@@H](CCCCN)C(=O)N[C@H](C(=O)N[C@@H](CC(C)C)C(N)=O)[C@@H](C)CC)C(C)C [V9] | 10.0305 | 43.1794 | –
CC[C@H](C)[C@H](N)C(=O)N[C@@H](CC(N)=O)C(=O)N[C@@H](CC(C)C)C(=O)N[C@@H](CCCCN)C(=O)N[C@@H](C)C(=O)N[C@@H](CC(C)C)C(=O)N[C@@H](C)C(=O)N[C@@H](C)C(=O)N[C@@H](CC(C)C)C(=O)N[C@H](C(=O)N[C@@H](CCCCN)C(=O)N[C@@H](CCCCN)C(=O)N[C@H](C(=O)N[C@@H](CC(C)C)C(N)=O)[C@@H](C)CC)C(C)C [V10] | 37.352 | 85.9235 | –
CC[C@H](C)[C@H](N)C(=O)N[C@@H](CC(N)=O)C(=O)N[C@@H](CC(C)C)C(=O)N[C@@H](CCCCN)C(=O)N[C@@H](C)C(=O)N[C@@H](CC(C)C)C(=O)N[C@@H](C)C(=O)N[C@@H](C)C(=O)N[C@@H](CC(C)C)C(=O)N[C@@H](C)C(=O)N[C@H](C(=O)N[C@@H](CCCCN)C(=O)N[C@H](C(=O)N[C@@H](CC(C)C)C(N)=O)[C@@H](C)CC)C(C)C [V11] | 14.2972 | 50.781 | –
CC[C@H](C)[C@H](N)C(=O)N[C@@H](CC(N)=O)C(=O)N[C@@H](CC(C)C)C(=O)N[C@@H](CCCCN)C(=O)N[C@@H](C)C(=O)N[C@@H](CC(C)C)C(=O)N[C@@H](C)C(=O)N[C@@H](C)C(=O)N[C@@H](CC(C)C)C(=O)N[C@@H](C)C(=O)N[C@@H](CCCCN)C(=O)N[C@H](C(=O)N[C@H](C(=O)N[C@@H](CC(C)C)C(N)=O)[C@@H](C)CC)C(C)C [V12] | 18.2596 | 51.0657 | –
CC[C@H](C)[C@H](N)C(=O)N[C@@H](CC(N)=O)C(=O)N[C@@H](CC(C)C)C(=O)N[C@@H](CCCCN)C(=O)N[C@@H](C)C(=O)N[C@@H](CC(C)C)C(=O)N[C@@H](C)C(=O)N[C@@H](C)C(=O)N[C@@H](CC(C)C)C(=O)N[C@@H](C)C(=O)N[C@@H](CCCCN)C(=O)N[C@@H](CCCCN)C(=O)N[C@H](C(=O)N[C@@H](CC(C)C)C(N)=O)C(C)C [V13] | 11.5837 | 38.0334 | –
CC[C@H](C)[C@H](N)C(=O)N[C@@H](CC(N)=O)C(=O)N[C@@H](CC(C)C)C(=O)N[C@@H](CCCCN)C(=O)N[C@@H](C)C(=O)N[C@@H](CC(C)C)C(=O)N[C@@H](C)C(=O)N[C@@H](C)C(=O)N[C@@H](CC(C)C)C(=O)N[C@@H](C)C(=O)N[C@@H](CCCCN)C(=O)N[C@@H](CCCCN)C(=O)N[C@H](C(=O)N[C@H](C(N)=O)C(C)C)[C@@H](C)CC [V14] | 3.082 | 42.849 | –
CC[C@H](C)[C@H](NC(=O)[C@H](CCCCN)NC(=O)[C@H](CCCCN)NC(=O)[C@H](C)NC(=O)[C@H](CC(C)C)NC(=O)[C@H](C)NC(=O)[C@H](C)NC(=O)[C@H](CC(C)C)NC(=O)[C@H](C)NC(=O)[C@H](CCCCN)NC(=O)[C@H](CC(C)C)NC(=O)[C@H](CC(N)=O)NC(=O)[C@@H](N)Cc1c[nH]c2ccccc12)C(=O)N[C@@H](CC(C)C)C(N)=O [W1] | 19.8521 | 42.4034 | –
CC[C@H](C)[C@H](N)C(=O)N[C@@H](Cc1c[nH]c2ccccc12)C(=O)N[C@@H](CC(C)C)C(=O)N[C@@H](CCCCN)C(=O)N[C@@H](C)C(=O)N[C@@H](CC(C)C)C(=O)N[C@@H](C)C(=O)N[C@@H](C)C(=O)N[C@@H](CC(C)C)C(=O)N[C@@H](C)C(=O)N[C@@H](CCCCN)C(=O)N[C@@H](CCCCN)C(=O)N[C@H](C(=O)N[C@@H](CC(C)C)C(N)=O)[C@@H](C)CC [W2] | 92.9669 | 98.3458 | –
CC[C@H](C)[C@H](N)C(=O)N[C@@H](CC(N)=O)C(=O)N[C@@H](Cc1c[nH]c2ccccc12)C(=O)N[C@@H](CCCCN)C(=O)N[C@@H](C)C(=O)N[C@@H](CC(C)C)C(=O)N[C@@H](C)C(=O)N[C@@H](C)C(=O)N[C@@H](CC(C)C)C(=O)N[C@@H](C)C(=O)N[C@@H](CCCCN)C(=O)N[C@@H](CCCCN)C(=O)N[C@H](C(=O)N[C@@H](CC(C)C)C(N)=O)[C@@H](C)CC [W3] | 22.6054 | 65.1242 | –
CC[C@H](C)[C@H](N)C(=O)N[C@@H](CC(N)=O)C(=O)N[C@@H](CC(C)C)C(=O)N[C@@H](Cc1c[nH]c2ccccc12)C(=O)N[C@@H](C)C(=O)N[C@@H](CC(C)C)C(=O)N[C@@H](C)C(=O)N[C@@H](C)C(=O)N[C@@H](CC(C)C)C(=O)N[C@@H](C)C(=O)N[C@@H](CCCCN)C(=O)N[C@@H](CCCCN)C(=O)N[C@H](C(=O)N[C@@H](CC(C)C)C(N)=O)[C@@H](C)CC [W4] | 30.4839 | 50.1282 | –
CC[C@H](C)[C@H](N)C(=O)N[C@@H](CC(N)=O)C(=O)N[C@@H](CC(C)C)C(=O)N[C@@H](CCCCN)C(=O)N[C@@H](Cc1c[nH]c2ccccc12)C(=O)N[C@@H](CC(C)C)C(=O)N[C@@H](C)C(=O)N[C@@H](C)C(=O)N[C@@H](CC(C)C)C(=O)N[C@@H](C)C(=O)N[C@@H](CCCCN)C(=O)N[C@@H](CCCCN)C(=O)N[C@H](C(=O)N[C@@H](CC(C)C)C(N)=O)[C@@H](C)CC [W5] | 88.7179 | 97.3063 | 75.0546
CC[C@H](C)[C@H](N)C(=O)N[C@@H](CC(N)=O)C(=O)N[C@@H](CC(C)C)C(=O)N[C@@H](CCCCN)C(=O)N[C@@H](C)C(=O)N[C@@H](Cc1c[nH]c2ccccc12)C(=O)N[C@@H](C)C(=O)N[C@@H](C)C(=O)N[C@@H](CC(C)C)C(=O)N[C@@H](C)C(=O)N[C@@H](CCCCN)C(=O)N[C@@H](CCCCN)C(=O)N[C@H](C(=O)N[C@@H](CC(C)C)C(N)=O)[C@@H](C)CC [W6] | 18.297 | 42.8966 | –
CC[C@H](C)[C@H](N)C(=O)N[C@@H](CC(N)=O)C(=O)N[C@@H](CC(C)C)C(=O)N[C@@H](CCCCN)C(=O)N[C@@H](C)C(=O)N[C@@H](CC(C)C)C(=O)N[C@@H](Cc1c[nH]c2ccccc12)C(=O)N[C@@H](C)C(=O)N[C@@H](CC(C)C)C(=O)N[C@@H](C)C(=O)N[C@@H](CCCCN)C(=O)N[C@@H](CCCCN)C(=O)N[C@H](C(=O)N[C@@H](CC(C)C)C(N)=O)[C@@H](C)CC [W7] | 70.534 | 92.6725 | –
CC[C@H](C)[C@H](N)C(=O)N[C@@H](CC(N)=O)C(=O)N[C@@H](CC(C)C)C(=O)N[C@@H](CCCCN)C(=O)N[C@@H](C)C(=O)N[C@@H](CC(C)C)C(=O)N[C@@H](C)C(=O)N[C@@H](Cc1c[nH]c2ccccc12)C(=O)N[C@@H](CC(C)C)C(=O)N[C@@H](C)C(=O)N[C@@H](CCCCN)C(=O)N[C@@H](CCCCN)C(=O)N[C@H](C(=O)N[C@@H](CC(C)C)C(N)=O)[C@@H](C)CC [W8] | 51.7838 | 62.4515 | –

Reference: PMC12748989 (Nature Communications, 2025)
